# Data reported in US4062948A, “Dihydromocimycin antibiotics” (Gist-Brocades N.V., priority 1970, dated 1977).
# “Also recorded” adds a separate entry of the source.
# Experiments:
# [1] = system: Staphylococcus aureus A 2000; experiment: Agar dilution tests; assay type: cell-based; details: A2000, anaerobic culture, read-out: Minimum inhibitory concentration
# [2] = system: Mycoplasma hyorhinus A2230; experiment: Liquid dilution tests; assay type: cell-based; details: A2230, read-out: Minimum inhibitory concentration
# [3] = system: Diplococcus pneumoniae L54; experiment: Agar dilution tests; assay type: cell-based; details: Streptococcus pneumoniae, anaerobic culture, read-out: Minimum inhibitory concentration
# [4] = system: Bacillus thuringiensis W11; experiment: Liquid dilution tests; assay type: cell-based; details: read-out: Minimum inhibitory concentration
# Bacillus cereus B569 = experiment: Liquid dilution tests; assay type: cell-based; details: read-out: Minimum inhibitory concentration
# [5] = system: Staphylococcus aureus A 2001; experiment: Agar dilution tests; assay type: cell-based; details: A2001, anaerobic culture, read-out: Minimum inhibitory concentration
# [6] = system: Clostridium septicum A2152; experiment: Agar dilution tests; assay type: cell-based; details: anaerobic culture, read-out: Minimum inhibitory concentration
# [7] = system: Bacillus subtilis ATCC 6051; experiment: Liquid dilution tests; assay type: cell-based; details: ATCC6051, read-out: Minimum inhibitory concentration
# [8] = system: Bacillus cereus var. mycoides; experiment: microbe, parasite or virus in culture; assay type: cell-based; details: read-out: Minimum inhibitory concentration
# Bacillus cereus D220 = experiment: Liquid dilution tests; assay type: cell-based; details: read-out: Minimum inhibitory concentration
# [9] = system: Listeria monocytogenes A2130; experiment: Agar dilution tests; assay type: cell-based; details: anaerobic culture, read-out: Minimum inhibitory concentration
# R-Streptococcen A2148 = experiment: Agar dilution tests; assay type: cell-based; details: read-out: Minimum inhibitory concentration
# [10] = system: Pasteurella haemolytica A2136; experiment: Agar dilution tests; assay type: cell-based; details: Mannheimia haemolytica, anaerobic culture, read-out: Minimum inhibitory concentration
# [11] = growth and feed-conversion of animals being fattened; assay type: in vivo; details: low concentration in feed; chickens or pigs
# Text: Many properties of dihydromocimycin are similar to those of mocimycin.
# Treponema spec. A2275 = experiment: Agar dilution tests; assay type: cell-based; details: anaerobic culture, read-out: Minimum inhibitory concentration
# [12] = system: Brucella suis (smooth) A2126; experiment: microbe, parasite or virus in culture; assay type: cell-based; details: read-out: Minimum inhibitory concentration
# [13] = system: Bacillus subtilis ATCC 6633; experiment: Liquid dilution tests; assay type: cell-based; details: ATCC6633, read-out: Minimum inhibitory concentration
# [14] = system: Listeria monocytogenes A2132; experiment: Agar dilution tests; assay type: cell-based; details: anaerobic culture, read-out: Minimum inhibitory concentration
# [15] = system: Streptomyces viridochromogenes; experiment: Liquid dilution tests; assay type: cell-based; details: read-out: Minimum inhibitory concentration
# [16] = system: Listeria monocytogenes A2131; experiment: Agar dilution tests; assay type: cell-based; details: anaerobic culture, read-out: Minimum inhibitory concentration
# [17] = system: Bacillus mesenterium D169; experiment: Liquid dilution tests; assay type: cell-based; details: read-out: Minimum inhibitory concentration
# [18] = system: Streptococcus zocepidemicus A2144; experiment: Agar dilution tests; assay type: cell-based; details: anaerobic culture, read-out: Minimum inhibitory concentration
# [19] = system: Clostridium perfringens A738; experiment: microbe, parasite or virus in culture; assay type: cell-based; details: A738, read-out: Minimum inhibitory concentration
# [20] = system: Streptococcus haemolyticus A2182; experiment: Liquid dilution tests; assay type: cell-based; details: read-out: Minimum inhibitory concentration
# Escherichia coli U20 = experiment: Agar dilution tests; assay type: cell-based; details: anaerobic culture, read-out: Minimum inhibitory concentration
# [21] = system: Salmonella typhimurium R172; experiment: Agar dilution tests; assay type: cell-based; details: Salmonella enterica, anaerobic culture, read-out: Minimum inhibitory concentration
# Bacillus cereus TH 1 = experiment: Liquid dilution tests; assay type: cell-based; details: TH1, read-out: Minimum inhibitory concentration
# [22] = system: Bacillus subtilis 6346 D167; experiment: Liquid dilution tests; assay type: cell-based; details: read-out: Minimum inhibitory concentration
# [23] = system: Streptococcus haemolyticus A266; experiment: Liquid dilution tests; assay type: cell-based; details: A266, read-out: Minimum inhibitory concentration
# Bacillus cereus D166 = experiment: Liquid dilution tests; assay type: cell-based; details: read-out: Minimum inhibitory concentration
# Solubility = assay type: physicochemical
# Bacillus subtilis TH 10 = experiment: Liquid dilution tests; assay type: cell-based; details: TH10, read-out: Minimum inhibitory concentration
# [24] = system: Bacillus subtilis 220 D178; experiment: Liquid dilution tests; assay type: cell-based; details: read-out: Minimum inhibitory concentration
# Bacillus cereus D261 = experiment: Liquid dilution tests; assay type: cell-based; details: read-out: Minimum inhibitory concentration
# Treponema hyodysenteriae = experiment: early experiments against Treponema dysentery; assay type: in vivo; details: swine
# Description: In an early stage of investigation, it was presumed that mocimycin, having a similar anti-microbial spectrum to that of tylosin (Merck Index, 8th Ed. page 1089), might be effective against Treponema hyodysenteriae causing Treponema dysentery of Vibrio Doyle, one of the most common swine diseases. […] For that reason, no further investigations were carried out.
Structure (SMILES),MIC [1],MIC [2],MIC [3],MIC [4],MIC (Bacillus cereus B569),MIC [5],MIC [6],MIC [7],MIC [8],MIC (Bacillus cereus D220),MIC [9],MIC (R-Streptococcen A2148),MIC [10],growth and feed-conversion [11],MIC (Treponema spec. A2275),MIC [12],MIC [13],MIC [14],MIC [15],MIC [16],further results
CC=CC=CC1OC(O)(C(CC)C(=O)NCC=CC=C(C)C(OC)C(C)C2OC(C=CC=CC=C(C)C(=O)C3=C(O)CCNC3=O)C(O)C2O)C(O)C(O)C1(C)C (centres unmarked) [dihydromocimycin],> 100 µg/mL,0.3 µg/mL,< 0.75 µg/mL,0.9 µg/mL,1.2 µg/mL,> 100 µg/mL,10 µg/mL,50 µg/mL,0.45 µg/mL,0.9 µg/mL,1.5 µg/mL,3 µg/mL,1.5 µg/mL,does not show any improvement of the growth or feed-conversion; also recorded: does not show the aforesaid properties,10 µg/mL,0.4 µg/mL,50 µg/mL,6 µg/mL,0.9 µg/mL,6 µg/mL,"MIC [17]: 50 µg/mL; MIC [18]: 6 µg/mL; MIC [19]: > 100 µg/mL; MIC [20]: 0.12 µg/mL; MIC (Escherichia coli U20): 100 µg/mL; MIC [21]: > 100 µg/mL; MIC (Bacillus cereus TH 1): 1.2 µg/mL; MIC [22]: 0.9 µg/mL; MIC [23]: 0.45 µg/mL; MIC (Bacillus cereus D166): 0.6 µg/mL; solubility (Solubility; carbon tetrachloride and benzene (dihydromocimycin)): moderate; solubility (Solubility; chloroform, methyl isobutyl ketone, ethyl acetate, butyl acetate, acetone, dioxan, methanol, ethanol, tetrahydrofuran, weakly alkaline aqueous solutions): good; solubility (Solubility; diethyl ether, water, weakly acid aqueous solutions, cyclohexane and petroleum ether): insoluble; MIC (Bacillus subtilis TH 10): 50 µg/mL; MIC [24]: 75 µg/mL; MIC (Bacillus cereus D261): 0.6 µg/mL"
CC=CC=CC1OC(O)(C(CC)C(=O)NCC=CC=C(C)C(OC)C(C)C2OC(C=CC=CC=C(C)C(=O)c3c(O)cc[nH]c3=O)C(O)C2O)C(O)C(O)C1(C)C (centres unmarked) [mocimycin],> 100 µg/mL,1 µg/mL,1.5 µg/mL,1.2 µg/mL,2.5 µg/mL,> 100 µg/mL,10 µg/mL,100 µg/mL,1.2 µg/mL,1.2 µg/mL,6 µg/mL,6 µg/mL,3 µg/mL,improves the growth and the feed-conversion markedly; also recorded: advantageous growth-promoting properties,30 µg/mL,0.75 µg/mL,100 µg/mL,6 µg/mL,2.5 µg/mL,6 µg/mL,"MIC [17]: 100 µg/mL; MIC [18]: 6 µg/mL; MIC [19]: > 100 µg/mL; MIC [20]: 0.25 µg/mL; MIC (Escherichia coli U20): > 100 µg/mL; MIC [21]: > 100 µg/mL; MIC (Bacillus cereus TH 1): 1.8 µg/mL; MIC [22]: 1.2 µg/mL; MIC [23]: 0.45 µg/mL; MIC (Bacillus cereus D166): 0.6 µg/mL; solubility (Solubility; carbon tetrachloride and benzene (mocimycin)): poor; solubility (Solubility; chloroform, methyl isobutyl ketone, butyl acetate, ethyl acetate, acetone, methanol and alkaline solutions): good; solubility (Solubility; diethyl ether, petroleum ether, water and acid solutions): insoluble; solubility (Solubility; pH 9): poorly soluble; MIC (Bacillus subtilis TH 10): 100 µg/mL; activity against Treponema dysentery compared with tylosin (Treponema hyodysenteriae): active against this disease, but not more so than tylosin; MIC [24]: 75 µg/mL; MIC (Bacillus cereus D261): 0.9 µg/mL"
